Legend:
[1] = pharmacological properties compared with paracetamol; format: in vivo
Description: (§1) The analgesic action of the product was determined by the following method: batches of 6 male mice (SPF, OFI strain), weighing 19 to 20 g, received the test product by intravenous means. 0.3 c.c. per mouse of a 0.02% solution of phenyl benzoquinone was simultaneously injected by intraperitoneal means and the number of reactions of pain (abdominal twists) was counted from the 5 to the 10 minute after the latter treatment.
The antihyperthermisant action of the product according to the invention was determined by the following method: batches of 5 male Fauve de Bourgogne rabbits weighing 2 to 3 kg receive by intraveneous means 1 c.c./kg of an endotoxin solution of Salmonella abortus equivalent to 1 γ/kg in the physiological serum.
Two and a half hours later, the test product was administered in a physiological solution by intraveneous means.
The rectal temperature was recorded at regular intervals by an Ellab thermocouple. The probe was pressed 80 mm in.

[2] = stability of aqueous solutions; format: physicochemical; conditions: with the passage of time
[3] = release of p-acetamidophenol in the organism
solubility in water = format: physicochemical; conditions: novel derivative
[4] = test system: reactions of pain (abdominal twists), phenyl benzoquinone; test: analgesic action: inhibition of phenyl benzoquinone-induced reactions of pain (abdominal twists); format: in vivo, male mice (SPF, OFI strain); conditions: mice, pain reactions counted from 5 to 10 minute
Description: as §1
The following Table I gives the inhibitory percentage of these reactions.

For CCN(CC)CC(=O)Oc1ccc(NC(C)=O)cc1 [p-acetamidophenyl diethylaminoacetate], the pharmacological properties [1] was “comparable to those of paracetamol”, the “stability of aqueous solutions” value [2] was “stable with the passage of time” and the release of p-acetamidophenol [3] was “rapidly releases p-acetamidophenol”. The solubility in water (solubility in water) was “very soluble in water”, the “% of inhibition” value ([4]; 8 mg/kg I.V.) was 26% and the “% of inhibition” value ([4]; 16 mg/kg I.V.) was 41%. The “% of inhibition” value ([4]; 32 mg/kg I.V.) was 68% and the “% of inhibition” value ([4]; 64 mg/kg I.V.) was 94%.

Reference: patent US4127671A, “P-acetamidophenyl diethylaminoacetate” (Societe Anonyme dite: HEXACHIME, priority 1977, dated 1978)
